Source: PubChem BioAssay (NCI)
“And” between values parts separate entries of the source, which are not always exact repeats. Identical values can stand only once.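 Interpolation was linear, between the two tested concentrations surrounding the appropriate level; five concentrations were tested over 48 hours in 96-well plates. GI50 is the concentration that inhibits growth by half. TGI: total growth inhibition.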

Tests used:
Assay in all cases: NCI anticancer screen, dose series, 48 h
[1] = system: IGROV1 ovarian
[2] = system: SNB-19 CNS
[3] = system: PC-3 prostate
[4] = system: HS 578T breast
[5] = system: T-47D breast
[6] = system: SR leukemia
[7] = system: HT29 colon
[8] = system: HOP-62 NSCLC
[9] = system: A549 NSCLC
[10] = system: CAKI-1 renal

| SMILES | GI50 [1] | TGI [1] | GI50 [2] | TGI [2] | GI50 [3] | TGI [3] | GI50 [4] | TGI [4] | GI50 [5] | TGI [5] | GI50 [6] | TGI [6] | GI50 [7] | TGI [7] | GI50 [8] | TGI [8] | GI50 [9] | TGI [9] | GI50 [10] | TGI [10] |
| --- | --- | --- | --- | --- | --- | --- | --- | --- | --- | --- | --- | --- | --- | --- | --- | --- | --- | --- | --- | --- |
| Cc1ccc(-c2c3c(N)nc(-c4ccncc4)nc3nc3c2c(C)nn3-c2ccccc2)cc1 | 22500 nM | > 37.5 µM | > 37.5 µM | > 37.5 µM | 32300 nM | > 37.5 µM | 5920 nM | > 37.5 µM | 1840 nM | > 37.5 µM | 7090 nM | 23.8 µM | 11500 nM | > 37.5 µM | 647 nM | 1.95 µM | 2.62 µM | > 37.5 µM | > 37.5 µM | > 37.5 µM |
| CCCCCCCCn1ccc2cc(NC(=O)Cn3cc(CN4CCC(C)CC4)nn3)ccc21 | 1430 nM | 2.96 µM | 1.76 µM | 3.42 µM | 1730 nM | 3.68 µM | 1600 nM | 4.12 µM | 1760 nM | 4.08 µM | 1900 nM | 5.24 µM | 1730 nM | 3.32 µM | 1760 nM | 3.4 µM | 1.74 µM | 3.4 µM | 1.67 µM | 3.15 µM |
| COc1ccc(-c2nnc(Nc3nc(O)c(C4=c5cc(OC(F)(F)F)ccc5=NC4=O)s3)o2)cc1 | 22000 nM | 60.7 µM | 9.67 µM | 31.2 µM | 19900 nM | 57.5 µM | 38300 nM | > 100 µM | 69800 nM | > 100 µM | 9000 nM | 34.2 µM | 71400 nM | > 100 µM | 15700 nM | 30.3 µM | 17.2 µM | 81.4 µM | 12.4 µM | 69.2 µM |
| O=C(O)CC1C(=O)OC2C3COC(=O)c4cc(O)c(O)c(O)c4-c4c(cc(O)c(O)c4O)C(=O)OC2C(OC(=O)c2cc(O)c(O)c4c2C1C(O)C(=O)O4)C(OC(=O)c1cc(O)c(O)c(O)c1)O3 (stereo not given) |  | > 100 µM |  | > 100 µM |  | > 100 µM |  | > 100 µM |  | > 100 µM |  | 75.8 µM |  | 26.4 µM |  | > 100 µM |  | > 100 µM |  | 42.9 µM |
| O=C1c2ccccc2C(=O)c2c(NCCNCCO)ccc(NCCNCCO)c21 | 1140 nM and 550 nM and 811 nM | 10.3 µM and 9.84 µM | 0.372 µM and 0.625 µM and 0.584 µM | 4.19 µM and 9.76 µM and 5.58 µM | 2270 nM and 2340 nM and 1670 nM | 17.8 µM and 13.4 µM and 7.54 µM | 333 nM and 208 nM and 1220 nM | 2.49 µM and 4.02 µM and 5.69 µM | 1140 nM and 1670 nM and 1250 nM | 7.09 µM and 7.05 µM and 5.97 µM | 1490 nM and 492 nM and 267 nM | 13.2 µM and 36.8 µM | 1320 nM and 2300 nM and 1640 nM | 7.42 µM and 12.1 µM and 5.1 µM | 422 nM and 473 nM and 509 nM | 4.19 µM and 3.82 µM and 4.76 µM | 0.195 µM and 0.183 µM and 0.123 µM | 6.92 µM and 9.37 µM and 6.34 µM | 2.31 µM and 2.42 µM and 4.94 µM | 45.2 µM and > 45.9 µM and > 100 µM |
| COc1cccc(C(C#N)NC23CC4CC(CC(C4)C2)C3)c1 (stereo not given) |  | > 100 µM |  | > 100 µM |  | > 100 µM |  | > 100 µM |  | > 100 µM |  | > 100 µM |  | > 100 µM |  | > 100 µM |  | > 100 µM |  | > 100 µM |
| O=C(O)c1ccccc1-c1ccccc1C(=O)Nc1ccc2c(c1)Cc1ccccc1-2 |  | > 100 µM |  | > 100 µM |  | > 100 µM |  | > 100 µM |  | > 100 µM |  | 65.1 µM |  | 70.1 µM |  | > 100 µM |  | 97.5 µM |  | > 100 µM |
| Cc1ccc2nc3sc(=O)sc3nc2c1 |  | 31.7 µM |  | 36.7 µM |  | 27.3 µM |  | 61.8 µM |  | > 100 µM |  | 80.2 µM |  | 31.2 µM |  | 30.6 µM |  | 29.6 µM |  | 30 µM |
| CCCCCCCCCCCCNC(=O)[C@H]1CSC(c2cc(Br)cs2)N1 (stereo not given in full) | 1000 nM | 2.19 µM | 2.48 µM | 8.49 µM | 981 nM | 2.25 µM | 1090 nM | 2.51 µM | 1980 nM | 8.66 µM | 967 nM | 2.27 µM | 1590 nM | 5.76 µM | 822 nM | 1.56 µM | 6.99 µM | 14.1 µM | 0.971 µM | 2.04 µM |
| C[C@@H](Oc1cc(-c2cnn(C3CC4(CNC4)C3)c2)cnc1N)c1c(Cl)ccc(F)c1Cl | 6640 nM | 21.5 µM | 9.7 µM | 24.3 µM | 2640 nM | 15.6 µM | 3870 nM | 27.1 µM | 3890 nM | 16.7 µM | 76.9 nM | 2.05 µM | 1700 nM | 5.98 µM | 2300 nM | 13.4 µM | 3.09 µM | 12.6 µM | 7.58 µM | 21.4 µM |
| O=C(O)CN(CC(=O)O)c1ccccc1 |  | > 100 µM |  | > 100 µM |  | > 100 µM |  | > 100 µM |  | > 100 µM |  | > 100 µM |  | > 100 µM |  | > 100 µM |  | > 100 µM |  | > 100 µM |
| O=C1c2ccccc2-c2c1c1c(O)cccc1n2CCCc1ccccc1 | 17100 nM | > 100 µM | 85.2 µM | > 100 µM | 16200 nM | > 100 µM | 41700 nM | > 100 µM | 13000 nM | > 100 µM | 4050 nM | > 100 µM | 42800 nM | > 100 µM | 43000 nM | > 100 µM | 9.61 µM | > 100 µM | 24.9 µM | > 100 µM |
| S=C(Nc1ccc(Cl)cc1)SC1CCCCC1 |  | 54.2 µM |  | 53.6 µM |  | > 100 µM |  | > 100 µM |  | > 100 µM |  | > 100 µM |  | 50.9 µM |  | 87.5 µM |  | 56.4 µM |  | > 100 µM |
| COc1ccc(C2=NNC(c3cc(Cc4ccc(O)c(C5CC(c6ccc(OC)cc6)=NN5)c4)ccc3O)C2)cc1 (stereo not given) | 13700 nM | > 100 µM | 6.89 µM | > 100 µM | 61400 nM | > 100 µM | 5580 nM | 68 µM | 4610 nM | > 100 µM | 16400 nM | > 100 µM | 32200 nM | > 100 µM | 8640 nM | > 100 µM | 6.84 µM | > 100 µM | 30.2 µM | > 100 µM |
| COc1ccccc1N(C(C)=O)C1=C(Cl)C(=O)c2ccccc2C1=O | 2820 nM | 10.3 µM | 3.16 µM | > 40.8 µM | 1170 nM | 10.8 µM | 2700 nM | > 71.9 µM | 382 nM | 2.95 µM | 1780 nM | 5.16 µM | 1890 nM | 4.45 µM | 3030 nM | 12.6 µM | 3.43 µM | 13.5 µM | 1.45 µM | 3.3 µM |
